# From article PMC11864979, “First-in-class ultralong-target-residence-time p38α inhibitors as a mitosis-targeted therapy for colorectal cancer” (Nature Cancer, 2025)
# Like-named read-outs stand apart in the source and are kept apart here.
# Legend:
# Experiment in all cases: selectivity profiling in a panel of 340 wild-type kinases (Reaction Biology Europe)
# Format in all cases: binding
# [1] = molecular target: T1, 340 wild-type kinases (Homo sapiens, UniProt P06239)
# T1 construct: purchased Reaction Biology Europe
# T1 sequence (P06239 whole entry): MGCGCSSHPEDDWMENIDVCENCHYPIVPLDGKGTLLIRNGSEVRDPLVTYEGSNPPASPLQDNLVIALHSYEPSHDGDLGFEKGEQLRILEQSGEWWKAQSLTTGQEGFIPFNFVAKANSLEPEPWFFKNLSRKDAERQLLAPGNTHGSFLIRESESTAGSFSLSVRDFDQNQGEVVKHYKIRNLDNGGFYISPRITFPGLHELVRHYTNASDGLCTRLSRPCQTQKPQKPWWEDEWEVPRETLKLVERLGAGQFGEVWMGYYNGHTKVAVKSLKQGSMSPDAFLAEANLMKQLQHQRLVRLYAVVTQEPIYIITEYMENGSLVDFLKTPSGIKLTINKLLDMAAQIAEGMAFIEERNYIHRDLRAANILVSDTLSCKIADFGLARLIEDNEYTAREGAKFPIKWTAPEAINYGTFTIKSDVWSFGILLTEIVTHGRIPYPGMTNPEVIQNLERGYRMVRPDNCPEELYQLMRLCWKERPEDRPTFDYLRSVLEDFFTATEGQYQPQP
# [2] = molecular target: T2, 340 wild-type kinases (Homo sapiens, UniProt P07949)
# T2 construct: purchased Reaction Biology Europe
# T2 sequence (P07949 29-1114): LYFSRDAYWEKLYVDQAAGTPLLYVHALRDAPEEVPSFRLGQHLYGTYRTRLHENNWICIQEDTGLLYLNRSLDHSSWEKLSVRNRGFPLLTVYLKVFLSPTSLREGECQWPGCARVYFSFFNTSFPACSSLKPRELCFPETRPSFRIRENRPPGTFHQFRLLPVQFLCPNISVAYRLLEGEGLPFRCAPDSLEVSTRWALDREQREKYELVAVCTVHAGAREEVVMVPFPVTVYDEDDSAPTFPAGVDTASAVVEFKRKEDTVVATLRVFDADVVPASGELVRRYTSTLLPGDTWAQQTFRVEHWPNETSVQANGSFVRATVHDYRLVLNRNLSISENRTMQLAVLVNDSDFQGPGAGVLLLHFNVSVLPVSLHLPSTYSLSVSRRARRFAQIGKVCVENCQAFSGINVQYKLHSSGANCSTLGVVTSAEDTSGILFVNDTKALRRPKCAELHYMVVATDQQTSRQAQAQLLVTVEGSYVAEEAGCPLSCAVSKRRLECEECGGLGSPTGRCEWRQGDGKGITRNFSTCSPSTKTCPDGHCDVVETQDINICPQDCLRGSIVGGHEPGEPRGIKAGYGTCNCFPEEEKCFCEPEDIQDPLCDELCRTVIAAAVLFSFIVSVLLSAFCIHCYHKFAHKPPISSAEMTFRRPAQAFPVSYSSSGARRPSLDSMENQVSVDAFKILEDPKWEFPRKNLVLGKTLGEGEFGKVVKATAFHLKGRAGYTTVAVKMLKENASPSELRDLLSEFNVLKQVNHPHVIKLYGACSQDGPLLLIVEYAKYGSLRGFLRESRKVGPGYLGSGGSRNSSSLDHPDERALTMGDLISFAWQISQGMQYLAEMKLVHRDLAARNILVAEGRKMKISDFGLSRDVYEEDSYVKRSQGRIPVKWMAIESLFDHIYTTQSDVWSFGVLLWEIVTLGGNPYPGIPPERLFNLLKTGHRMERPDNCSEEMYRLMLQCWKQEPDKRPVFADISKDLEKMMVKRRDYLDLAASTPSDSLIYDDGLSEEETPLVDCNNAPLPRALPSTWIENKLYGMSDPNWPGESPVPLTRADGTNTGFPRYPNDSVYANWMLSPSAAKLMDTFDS
# [3] = molecular target: T3, 340 wild-type kinases (Homo sapiens, UniProt P42681)
# T3 construct: purchased Reaction Biology Europe
# T3 sequence (P42681 1-527): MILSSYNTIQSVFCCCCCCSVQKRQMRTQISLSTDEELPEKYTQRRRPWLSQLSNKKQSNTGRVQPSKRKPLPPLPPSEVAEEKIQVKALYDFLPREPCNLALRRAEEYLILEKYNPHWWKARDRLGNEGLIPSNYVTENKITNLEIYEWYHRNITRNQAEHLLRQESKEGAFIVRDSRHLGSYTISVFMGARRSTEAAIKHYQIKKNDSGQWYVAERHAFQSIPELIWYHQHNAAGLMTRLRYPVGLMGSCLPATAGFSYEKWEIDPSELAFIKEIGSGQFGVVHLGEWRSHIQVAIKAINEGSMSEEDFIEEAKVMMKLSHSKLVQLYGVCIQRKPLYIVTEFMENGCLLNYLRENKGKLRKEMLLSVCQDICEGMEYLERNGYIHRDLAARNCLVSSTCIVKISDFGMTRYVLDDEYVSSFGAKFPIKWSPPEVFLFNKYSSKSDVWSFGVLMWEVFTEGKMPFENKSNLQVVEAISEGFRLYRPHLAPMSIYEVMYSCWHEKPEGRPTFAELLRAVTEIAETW
# [4] = molecular target: T4, 340 wild-type kinases (Homo sapiens, UniProt Q8IU85)
# T4 construct: purchased Reaction Biology Europe
# T4 sequence (Q8IU85 whole entry): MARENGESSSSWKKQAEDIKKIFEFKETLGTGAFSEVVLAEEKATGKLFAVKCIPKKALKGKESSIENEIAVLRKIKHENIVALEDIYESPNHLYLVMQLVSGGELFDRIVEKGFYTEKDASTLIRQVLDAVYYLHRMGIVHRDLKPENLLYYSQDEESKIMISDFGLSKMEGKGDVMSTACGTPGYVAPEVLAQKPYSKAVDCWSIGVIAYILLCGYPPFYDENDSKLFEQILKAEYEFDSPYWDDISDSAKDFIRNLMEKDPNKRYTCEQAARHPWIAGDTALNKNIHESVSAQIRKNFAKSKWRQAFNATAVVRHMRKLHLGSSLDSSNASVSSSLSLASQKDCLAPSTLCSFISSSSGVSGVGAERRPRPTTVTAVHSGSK
# [5] = molecular target: T5, 340 wild-type kinases (Homo sapiens, UniProt Q96GX5)
# T5 construct: purchased Reaction Biology Europe
# T5 sequence (Q96GX5 1-879): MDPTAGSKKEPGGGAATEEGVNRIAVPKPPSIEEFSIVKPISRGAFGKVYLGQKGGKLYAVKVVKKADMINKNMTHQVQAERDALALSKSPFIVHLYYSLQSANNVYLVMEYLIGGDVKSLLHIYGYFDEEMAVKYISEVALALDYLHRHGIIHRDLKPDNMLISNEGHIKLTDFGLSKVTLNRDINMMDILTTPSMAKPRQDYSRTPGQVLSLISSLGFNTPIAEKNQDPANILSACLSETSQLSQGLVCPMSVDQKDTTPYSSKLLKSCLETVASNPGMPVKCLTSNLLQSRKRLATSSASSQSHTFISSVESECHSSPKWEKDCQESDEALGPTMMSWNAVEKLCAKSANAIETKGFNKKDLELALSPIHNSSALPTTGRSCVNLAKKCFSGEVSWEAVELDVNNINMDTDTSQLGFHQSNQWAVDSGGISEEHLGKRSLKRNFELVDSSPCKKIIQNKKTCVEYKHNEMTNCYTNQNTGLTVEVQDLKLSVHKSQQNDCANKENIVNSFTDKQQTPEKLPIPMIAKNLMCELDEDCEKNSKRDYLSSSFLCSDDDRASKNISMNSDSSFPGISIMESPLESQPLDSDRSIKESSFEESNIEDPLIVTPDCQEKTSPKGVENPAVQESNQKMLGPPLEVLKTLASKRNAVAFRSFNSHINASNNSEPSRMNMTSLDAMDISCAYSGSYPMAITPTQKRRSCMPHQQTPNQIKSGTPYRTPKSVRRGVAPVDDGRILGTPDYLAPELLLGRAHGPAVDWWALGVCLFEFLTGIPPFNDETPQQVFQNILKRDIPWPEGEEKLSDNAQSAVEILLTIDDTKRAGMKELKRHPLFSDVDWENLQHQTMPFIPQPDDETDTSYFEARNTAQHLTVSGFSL
# [6] = molecular target: T6, 340 wild-type kinases (Homo sapiens, UniProt Q9BXA7)
# T6 construct: purchased Reaction Biology Europe
# T6 sequence (Q9BXA7 1-367): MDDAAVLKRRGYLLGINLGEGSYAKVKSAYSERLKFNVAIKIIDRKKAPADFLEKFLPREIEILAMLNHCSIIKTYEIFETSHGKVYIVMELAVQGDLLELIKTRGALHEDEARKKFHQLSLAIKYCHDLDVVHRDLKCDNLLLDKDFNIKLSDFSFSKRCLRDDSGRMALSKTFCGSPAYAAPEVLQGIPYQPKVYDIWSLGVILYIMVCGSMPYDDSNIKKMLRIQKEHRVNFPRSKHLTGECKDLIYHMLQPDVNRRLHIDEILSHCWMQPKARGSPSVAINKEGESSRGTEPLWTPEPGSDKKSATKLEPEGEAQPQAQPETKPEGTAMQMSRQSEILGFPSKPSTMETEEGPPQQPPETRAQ
# [7] = molecular target: T7, 340 wild-type kinases (Homo sapiens, UniProt Q9Y463)
# T7 construct: purchased Reaction Biology Europe
# T7 sequence (Q9Y463 whole entry): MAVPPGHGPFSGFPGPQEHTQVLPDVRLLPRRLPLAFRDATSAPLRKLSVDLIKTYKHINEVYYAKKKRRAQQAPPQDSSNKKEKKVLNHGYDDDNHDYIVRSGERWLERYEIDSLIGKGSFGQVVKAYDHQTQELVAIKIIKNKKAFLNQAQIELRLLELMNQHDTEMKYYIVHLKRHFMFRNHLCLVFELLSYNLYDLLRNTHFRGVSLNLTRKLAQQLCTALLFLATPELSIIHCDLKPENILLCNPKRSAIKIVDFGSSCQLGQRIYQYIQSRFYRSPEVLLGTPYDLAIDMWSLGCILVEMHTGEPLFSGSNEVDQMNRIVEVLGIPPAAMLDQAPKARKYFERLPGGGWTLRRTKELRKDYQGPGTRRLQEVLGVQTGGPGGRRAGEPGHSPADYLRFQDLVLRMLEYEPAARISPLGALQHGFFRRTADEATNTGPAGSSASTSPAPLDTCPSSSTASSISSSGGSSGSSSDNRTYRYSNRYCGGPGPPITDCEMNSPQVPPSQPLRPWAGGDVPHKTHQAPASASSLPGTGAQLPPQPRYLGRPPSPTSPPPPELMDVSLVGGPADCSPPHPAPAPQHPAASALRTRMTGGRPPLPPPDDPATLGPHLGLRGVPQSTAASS
structure (smiles),measurement,setting,value
CNC(=O)c1ccc2c(c1)C(=O)c1ccc(Nc3ccc(F)c(NC(=O)C4CC4)c3)cc1CC2 [Compound 2015],remaining activity at 0.2 µM,"[1]; 0.2 µM 2015, read-out: LCK residual activity",104%
same,remaining activity at 1 µM,"[1]; 1 µM 2015, read-out: LCK residual activity",95.6%
same,remaining activity at 0.2 µM,"[1]; LCK, 0.2 µM, read-out: residual activity",104%
same,remaining activity at 1 µM,"[1]; LCK, 1 µM, read-out: residual activity",95.6%
same,remaining activity at 0.2 µM,"[2]; 0.2 µM 2015, read-out: RET residual activity",105%
same,remaining activity at 1 µM,"[2]; 1 µM 2015, read-out: RET residual activity",80.3%
same,remaining activity at 0.2 µM,"[2]; RET, 0.2 µM, read-out: residual activity",105%
same,remaining activity at 1 µM,"[2]; RET, 1 µM, read-out: residual activity",80.3%
same,remaining activity at 0.2 µM,"[3]; 0.2 µM 2015, read-out: TXK residual activity",94.2%
same,remaining activity at 1 µM,"[3]; 1 µM 2015, read-out: TXK residual activity",90%
same,remaining activity at 0.2 µM,"[3]; TXK, 0.2 µM, read-out: residual activity",94.2%
same,remaining activity at 1 µM,"[3]; TXK, 1 µM, read-out: residual activity",90%
same,remaining activity at 0.2 µM,"[4]; 0.2 µM 2015, read-out: CAMK1D residual activity",100%
same,remaining activity at 1 µM,"[4]; 1 µM 2015, read-out: CAMK1D residual activity",90.6%
same,remaining activity at 0.2 µM,"[4]; CAMK1D, 0.2 µM, read-out: residual activity",100%
same,remaining activity at 1 µM,"[4]; CAMK1D, 1 µM, read-out: residual activity",90.6%
same,remaining activity at 0.2 µM,"[5]; 0.2 µM 2015, read-out: MASTL residual activity",101%
same,remaining activity at 1 µM,"[5]; 1 µM 2015, read-out: MASTL residual activity",93.3%
same,remaining activity at 0.2 µM,"[5]; MASTL, 0.2 µM, read-out: residual activity",101%
same,remaining activity at 1 µM,"[5]; MASTL, 1 µM, read-out: residual activity",93.3%
same,remaining activity at 0.2 µM,"[6]; 0.2 µM 2015, read-out: TSSK1 residual activity",125%
same,remaining activity at 1 µM,"[6]; 1 µM 2015, read-out: TSSK1 residual activity",106%
same,remaining activity at 0.2 µM,"[6]; TSSK1, 0.2 µM, read-out: residual activity",125%
same,remaining activity at 1 µM,"[6]; TSSK1, 1 µM, read-out: residual activity",106%
same,remaining activity at 0.2 µM,"[7]; 0.2 µM 2015, read-out: DYRK1B residual activity",96.9%
same,remaining activity at 1 µM,"[7]; 1 µM 2015, read-out: DYRK1B residual activity",94.1%
same,remaining activity at 0.2 µM,"[7]; DYRK1B, 0.2 µM, read-out: residual activity",96.9%
same,remaining activity at 1 µM,"[7]; DYRK1B, 1 µM, read-out: residual activity",94.1%
